In PubChem BioAssay AID1963873 (Molecular Pharmacology Branch, DTP, NCI, 2024):

Tested on: 276233-004-R-J1-PDC KRAS spheroids with HUVEC/MSC, viability
Assay: Anticancer human tumor 276233-004-R-J1-PDC patient-derived colon adenocarcinoma cell line growth inhibition [KRAS2]
Settings: for IC50: curve of first compound; for viability, T/C: stronger effect = lower value
Summary of the method: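 KRAS-mutant tumor cells were grown as spheroids with HUVEC endothelial cells and human MSCs as stroma. Targeted agents were tested alone and with KRAS pathway inhibitors. Doses started at or near clinical Cmax, or 10 microM, descending half-log.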

[1] = second compound 0.1 µM, first compound 0.0316 µM
[2] = second compound 0.1 µM, first compound 0.1 µM
[3] = second compound 0.1 µM, first compound 0.316 µM
[4] = second compound 0.1 µM, first compound 1 µM
[5] = second compound 0.1 µM, first compound 3.16 µM
[6] = second compound 0.1 µM, first compound 10 µM
[7] = second compound 0.316 µM, first compound 0.0316 µM
[8] = second compound 0.316 µM, first compound 0.1 µM
[9] = second compound 0.316 µM, first compound 0.316 µM
[10] = second compound 0.316 µM, first compound 1 µM
[11] = second compound 0.316 µM, first compound 3.16 µM
[12] = second compound 0.316 µM, first compound 10 µM
[13] = second compound 1 µM, first compound 0.0316 µM
[14] = second compound 1 µM, first compound 0.1 µM
[15] = second compound 1 µM, first compound 0.316 µM
[16] = second compound 1 µM, first compound 1 µM
[17] = second compound 1 µM, first compound 3.16 µM
[18] = second compound 1 µM, first compound 10 µM
[19] = second compound 3.16 µM, first compound 0.0316 µM
[20] = second compound 3.16 µM, first compound 0.1 µM
[21] = second compound 3.16 µM, first compound 0.316 µM
[22] = second compound 3.16 µM, first compound 1 µM
[23] = second compound 3.16 µM, first compound 3.16 µM
[24] = second compound 3.16 µM, first compound 10 µM
[25] = second compound 10 µM, first compound 0.0316 µM
[26] = second compound 10 µM, first compound 0.1 µM
[27] = second compound 10 µM, first compound 0.316 µM
[28] = second compound 10 µM, first compound 1 µM
[29] = second compound 10 µM, first compound 3.16 µM
[30] = second compound 10 µM, first compound 10 µM
[31] = second compound 0.1 µM, first compound 0.000316 µM
[32] = second compound 0.1 µM, first compound 0.001 µM
[33] = second compound 0.1 µM, first compound 0.00316 µM
[34] = second compound 0.1 µM, first compound 0.01 µM
[35] = second compound 0.316 µM, first compound 0.000316 µM
[36] = second compound 0.316 µM, first compound 0.001 µM
[37] = second compound 0.316 µM, first compound 0.00316 µM
[38] = second compound 0.316 µM, first compound 0.01 µM
[39] = second compound 1 µM, first compound 0.000316 µM
[40] = second compound 1 µM, first compound 0.001 µM
[41] = second compound 1 µM, first compound 0.00316 µM
[42] = second compound 1 µM, first compound 0.01 µM
[43] = second compound 3.16 µM, first compound 0.000316 µM
[44] = second compound 3.16 µM, first compound 0.001 µM
[45] = second compound 3.16 µM, first compound 0.00316 µM
[46] = second compound 3.16 µM, first compound 0.01 µM
[47] = second compound 10 µM, first compound 0.000316 µM
[48] = second compound 10 µM, first compound 0.001 µM
[49] = second compound 10 µM, first compound 0.00316 µM
[50] = second compound 10 µM, first compound 0.01 µM
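Note: cells exposed to agents for seven days before viability read.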
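Throughout, for viability, T/C: 100% = DMSO vehicle control wells and lower values mean fewer viable cells.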

| Structure (SMILES) | IC50 (second compound 0.1 µM) | IC50 (second compound 0.316 µM) | IC50 (second compound 1 µM) | IC50 (second compound 3.16 µM) | IC50 (second compound 10 µM) | viability, T/C [1] | viability, T/C [2] | viability, T/C [3] | viability, T/C [4] | viability, T/C [7] | viability, T/C [8] | viability, T/C [9] | viability, T/C [10] | viability, T/C [13] | viability, T/C [14] | viability, T/C [15] | viability, T/C [19] | viability, T/C [20] | viability, T/C [25] | viability, T/C [26] | further results |
| --- | --- | --- | --- | --- | --- | --- | --- | --- | --- | --- | --- | --- | --- | --- | --- | --- | --- | --- | --- | --- | --- |
| CC(C)NCC(C(=O)N1CCN(c2ncnc3c2C(C)CC3O)CC1)c1ccc(Cl)cc1 (stereo not given) + CNCc1ccccc1-c1csc(C(C)Nc2nc(C)nc3cc(OC)c(OC)cc23)c1 | > 10000 nM | > 10000 nM | 563 nM | < 31.6 nM | < 31.6 nM | 77.2% | 69.9% | 79.5% | 78.8% | 88.3% | 96.1% | 76.4% | 70.6% | 66.9% | 50.1% | 78.5% | 0.57% | 0.54% | 0.2% | 0.22% | viability, T/C [5]: 66%; viability, T/C [6]: 53.6%; viability, T/C [11]: 70.4%; viability, T/C [12]: 58.6%; viability, T/C [16]: 34.9%; viability, T/C [17]: 23.9%; viability, T/C [18]: 38.2%; viability, T/C [21]: 0.43%; viability, T/C [22]: 0.58%; viability, T/C [23]: 0.56%; viability, T/C [24]: 0.49%; viability, T/C [27]: 0.18%; viability, T/C [28]: 0.2%; viability, T/C [29]: 1.04%; viability, T/C [30]: 0.31% |
| CC(C)n1nc(-c2ccc3oc(N)nc3c2)c2c(N)ncnc21 + CNCc1ccccc1-c1csc(C(C)Nc2nc(C)nc3cc(OC)c(OC)cc23)c1 | 42.8 nM | 90.1 nM | 6.83 nM | < 0.316 nM | < 0.316 nM | 53.2% | 44.4% | – | – | 45% | 54.5% | – | – | 43.2% | 51.6% | – | 1.9% | 0.88% | 0.21% | 0.37% | viability, T/C [31]: 88.7%; viability, T/C [32]: 76.2%; viability, T/C [33]: 66.1%; viability, T/C [34]: 59.5%; viability, T/C [35]: 82.3%; viability, T/C [36]: 70.7%; viability, T/C [37]: 66.2%; viability, T/C [38]: 55.5%; viability, T/C [39]: 57.9%; viability, T/C [40]: 63.7%; viability, T/C [41]: 60.5%; viability, T/C [42]: 39.6%; viability, T/C [43]: 0.56%; viability, T/C [44]: 0.43%; viability, T/C [45]: 0.72%; viability, T/C [46]: 0.43%; viability, T/C [47]: 0.94%; viability, T/C [48]: 0.17%; viability, T/C [49]: 1.02%; viability, T/C [50]: 0.26% |
| CC1(C)CCC(CN2CCN(c3ccc(C(=O)NS(=O)(=O)c4ccc(NCC5CCOCC5)c([N+](=O)[O-])c4)c(Oc4cnc5[nH]ccc5c4)c3)CC2)=C(c2ccc(Cl)cc2)C1 + CNCc1ccccc1-c1csc(C(C)Nc2nc(C)nc3cc(OC)c(OC)cc23)c1 | > 10000 nM | 7260 nM | > 10000 nM | < 31.6 nM | < 31.6 nM | 81.9% | 111% | 105% | 75.4% | 102% | 94.9% | 77.5% | 103% | 110% | 51.5% | 65.7% | 0.58% | 0.56% | 0.18% | 0.21% | viability, T/C [5]: 79.5%; viability, T/C [6]: 67.3%; viability, T/C [11]: 69.9%; viability, T/C [12]: 42.3%; viability, T/C [16]: 59.4%; viability, T/C [17]: 58.5%; viability, T/C [18]: 42%; viability, T/C [21]: 0.78%; viability, T/C [22]: 0.7%; viability, T/C [23]: 0.34%; viability, T/C [24]: 1.88%; viability, T/C [27]: 0.17%; viability, T/C [28]: 0.17%; viability, T/C [29]: 0.39%; viability, T/C [30]: 0.28% |
| CCN1CCN(Cc2ccc(Nc3ncc(F)c(-c4cc(F)c5nc(C)n(C(C)C)c5c4)n3)nc2)CC1 + CNCc1ccccc1-c1csc(C(C)Nc2nc(C)nc3cc(OC)c(OC)cc23)c1 | > 1000 nM | > 1000 nM | 540 nM | < 3.16 nM | < 3.16 nM | 87.1% | 92.1% | 126% | 115% | 95.3% | 107% | 104% | 116% | 76.3% | 76.2% | 80.7% | 0.51% | 0.41% | 0.33% | 0.21% | viability, T/C [33]: 129%; viability, T/C [34]: 106%; viability, T/C [37]: 90.2%; viability, T/C [38]: 111%; viability, T/C [41]: 92.2%; viability, T/C [42]: 96.9%; viability, T/C [16]: 16%; viability, T/C [45]: 0.71%; viability, T/C [46]: 0.53%; viability, T/C [21]: 1.45%; viability, T/C [22]: 0.72%; viability, T/C [49]: 0.81%; viability, T/C [50]: 1.33%; viability, T/C [27]: 0.22%; viability, T/C [28]: 0.3% |
| COc1cc2nccc(Oc3ccc(NC(=O)C4(C(=O)Nc5ccc(F)cc5)CC4)cc3)c2cc1OC + CNCc1ccccc1-c1csc(C(C)Nc2nc(C)nc3cc(OC)c(OC)cc23)c1 | > 10000 nM | > 10000 nM | 595 nM | < 31.6 nM | < 31.6 nM | 82.3% | 109% | 82.8% | 88.3% | 83.3% | 85% | 85.8% | 109% | 74.8% | 58.8% | 68.7% | 0.61% | 2.67% | 0.64% | 0.19% | viability, T/C [5]: 80.9%; viability, T/C [6]: 88.2%; viability, T/C [11]: 83.2%; viability, T/C [12]: 67.2%; viability, T/C [16]: 35.6%; viability, T/C [17]: 15%; viability, T/C [18]: 41.5%; viability, T/C [21]: 0.63%; viability, T/C [22]: 0.45%; viability, T/C [23]: 0.77%; viability, T/C [24]: 0.33%; viability, T/C [27]: 0.57%; viability, T/C [28]: 0.15%; viability, T/C [29]: 0.14%; viability, T/C [30]: 1.46% |
| Cn1ncnc1[C@H]1c2n[nH]c(=O)c3cc(F)cc(c23)N[C@@H]1c1ccc(F)cc1 + CNCc1ccccc1-c1csc(C(C)Nc2nc(C)nc3cc(OC)c(OC)cc23)c1 | > 100 nM | > 100 nM | > 100 nM | < 0.316 nM | < 0.316 nM | 87.6% | 120% | – | – | 83.2% | 98.5% | – | – | 50.2% | 78% | – | 0.53% | 0.74% | 0.18% | 2.9% | viability, T/C [31]: 113%; viability, T/C [32]: 115%; viability, T/C [33]: 98.2%; viability, T/C [34]: 107%; viability, T/C [35]: 96.1%; viability, T/C [36]: 119%; viability, T/C [37]: 116%; viability, T/C [38]: 124%; viability, T/C [39]: 56.7%; viability, T/C [40]: 69.5%; viability, T/C [41]: 75.1%; viability, T/C [42]: 68.2%; viability, T/C [43]: 9.27%; viability, T/C [44]: 0.64%; viability, T/C [45]: 0.7%; viability, T/C [46]: 0.62%; viability, T/C [47]: 0.22%; viability, T/C [48]: 0.22%; viability, T/C [49]: 0.22%; viability, T/C [50]: 0.2% |
